Test results from patent publication US8410145B2, “Insecticidal compounds” (Syngenta Crop Protection LLC, priority 2007, dated 2013).

Tests used:
Assay type in all cases: in vivo
[1] = tested on: Plutella xylostella (Diamond Back Moth); assay: Plutella xylostella larvae test on artificial diet; conditions: 144 h, 200 ppm (concentration in well 18 ppm), L2 larvae, larval mortality and growth regulation after 6 days
Source text: (§1) Cotton leaf discs were placed on agar in a 24-well microtiter plate and sprayed with test solutions at an application rate of 200 ppm. After drying, the leaf discs were infested with 5 to L1 larvae. The samples were checked for mortality, feeding behavior, and growth regulation 3 days after treatment (DAT). The following compounds gave at least 80% control of Spodoptera littoralis: A1, A2, A3, A4, A6, A9, A10, A11, A12, A13, A14, A15, A16, A19, A20, A22, A23, A25, A26, A27, B1, B2, B3, B5, B6, B7, B8, B9, B11, B12, B13, B15, B16, B18, B19, B20, B21, B22, B24, B26, B27, B28, C1, C2, C3, C4, C5, C6, C7, C8, C9, C10, C12, C13, C16, C19, C20, C21, C22, C23, D1, D2, D3, D4, D5, D6, D7, D8, D9, D10, D11, D12, D13, D14, D15, D16, D17, D18, D19, D20, D21, D22, D23, D24. Heliothis virescens (Tobacco Budworm): Eggs (0-24 h old) were placed in 24-well microtiter plate on artificial diet and treated with test solutions at an application rate of 200 ppm (concentration in well 18 ppm) by pipetting. After an incubation period of 4 days, samples were checked for egg mortality, larval mortality, and growth regulation. The following compounds gave at least 80% control of Heliothis virescens: A1, A2, A3, A4, A13, A15, A17, A19, A20, A22, A23, A25, A26, A28, B1, B2, B3, B5, B6, B7, B9, B11, B13, B15, B18, B19, B20, B21, B25, B26, B27, B28, C1, C2, C3, C4, C5, C6, C7, C8, C9, C10, C12, C14, C16, C17, C19, C20, C21, C22, D1, D2, D3, D4, D5, D6, D7, D8, D9, D10, D11, D12, D13, D14, D15, D16, D17, D18, D19, D20, D21, D22, D23, E1, E2, E3, E4, E5. Plutella xylostella (Diamond Back Moth): 24-well microtiter plate (MTP) with artificial diet was treated with test solutions at an application rate of 200 ppm (concentration in well 18 ppm) by pipetting. After drying, the MTP's were infested with L2 larvae (7-12 per well). After an incubation period of 6 days, samples were checked for larval mortality and growth regulation. The following compounds gave at least 80% control of Plutella xylostella: A1, A3, A4, A10, All, A15, A19, A23, A25, B1, B2, B3, B5, B6, B7, B8, B9, B11, B13, B15, B18, B19, B20, B21, B26, B27, B28, C1, C2, C3, C4, C6, C7, C8, C9, C12, C16, C19, C20, C22, D1, D2, D3, D4, D5, D6, D7, D8, D9, D10, D12, D13, D14, D15, D16, D17, D18, D19, D20, D21, D22, D23, E1, E3, E5. Diabrotica balteata (Corn Root Worm): A 24-well microtiter plate (MTP) with artificial diet was treated with test solutions at an application rate of 200 ppm (concentration in well 18 ppm) by pipetting. After drying, the MTP's were infested with L2 larvae (6-10 per well). After an incubation period of 5 days, samples were checked for larval mortality and growth regulation. The following compounds gave at least 80% control of Diabrotica balteata: A2, A3, A4, A9, A11, A12, A13, A14, A15, A17, A19, A21, A22, A23, A24, A25, A26, B1, B2, B3, B6, B7, B8, B11, B13, B14, B15, B18, B19, B20, B21, B22, B26, B28, C1, C2, C3, C4, C5, C6, C7, C8, C9, C10, C12, C14, C15, C16, C19, C20, C21, C22, C23, C26, D1, D2, D4, D5, D6, D7, D8, D9, D10, D12, D14, D15, D16, D17, D18, D19, D20, D21, D22, D23, E2, E3, E5. Thrips tabaci (Onion Thrips): Sunflower leaf discs were placed on agar in a 24-well microtiter plate and sprayed with test solutions at an application rate of 200 ppm. After drying, the leaf discs were infested with an […] population of mixed ages. After an incubation period of 7 days, samples were checked for mortality. The following compounds gave at least 80% control of Thrips tabaci: B1, B7, B11, B15, B18, B19, B28, D1, D2, D3, D4, D5, D6, D7, D8, D9, D10, D12, D16, D18, D19, D20, D21, D23. Tetranychus urticae (Two-Spotted Spider Mite): Bean leaf discs on agar in 24-well microtiter plates were sprayed with test solutions at an application rate of 200 ppm. After drying, the leaf discs are infested with mite populations of mixed ages. 8 days later, discs are checked for egg mortality, larval mortality, and adult mortality. […]

[2] = tested on: Diabrotica balteata (Corn Root Worm); assay: Diabrotica balteata larvae test on artificial diet; conditions: 120 h, 200 ppm (concentration in well 18 ppm), L2 larvae, larval mortality and growth regulation after 5 days
Source text: as §1

[3] = tested on: Heliothis virescens (Tobacco Budworm); assay: Heliothis virescens egg test on artificial diet; conditions: 96 h, 200 ppm (concentration in well 18 ppm), eggs 0-24 h old on artificial diet, egg mortality, larval mortality, growth regulation after 4 days
Source text: as §1

[4] = tested on: Thrips tabaci (Onion Thrips); assay: Thrips tabaci sunflower leaf disc spray test; conditions: foliar, 168 h, 200 ppm spray on sunflower leaf discs, population of mixed ages, mortality after 7 days
Source text: as §1

[5] = tested on: Tetranychus urticae (Two-Spotted Spider Mite); assay: Tetranychus urticae bean leaf disc spray test; conditions: foliar, 192 h, 200 ppm spray on bean leaf discs, mite populations of mixed ages, egg, larval and adult mortality 8 days later
Source text: as §1

[6] = tested on: Spodoptera littoralis (Egyptian Cotton Leafworm); assay: Spodoptera littoralis cotton leaf disc spray test; conditions: foliar, 72 h, 200 ppm spray on cotton leaf discs, L1 larvae, mortality, feeding behavior, growth regulation 3 DAT
Source text: as §1

Measured: pest or weed control at 200 ppm

N#Cc1ccc(C2=NOC(c3cc(Cl)cc(Cl)c3)(C(F)(F)F)C2)cc1NC(=O)c1ccccc1Cl (stereo not drawn) [D7]
≥ 80%: all assays above

N#Cc1ccc(C2=NOC(c3cc(Cl)cc(Cl)c3)(C(F)(F)F)C2)cc1NC(=O)c1ccc([N+](=O)[O-])cc1 (stereo not drawn) [D8]
≥ 80%: all assays above

Cc1ccc(C(=O)Nc2cc(C3=NOC(c4cc(Cl)cc(Cl)c4)(C(F)(F)F)C3)ccc2C#N)cc1 (stereo not drawn) [D9]
≥ 80%: all assays above

N#Cc1ccc(C2=NOC(c3cc(Cl)cc(Cl)c3)(C(F)(F)F)C2)cc1NC(=O)c1ccc(F)cc1 (stereo not drawn) [D18]
≥ 80%: all assays above
